The values that follow come from patent US8703961B2, “Thiazole derivatives for the treatment of diseases such as cancer” (Merck Patent GmbH, priority 2009, dated 2014).

pIC50: −log10 of the molar value.

What all share (assay): filter binding kinase assay
Type in all cases: biochemical

Assay [1] addresses T1, NEK2 (Nek2A) (Homo sapiens, UniProt P51955).
T1 construct: purchased
T1 sequence (P51955 1-445): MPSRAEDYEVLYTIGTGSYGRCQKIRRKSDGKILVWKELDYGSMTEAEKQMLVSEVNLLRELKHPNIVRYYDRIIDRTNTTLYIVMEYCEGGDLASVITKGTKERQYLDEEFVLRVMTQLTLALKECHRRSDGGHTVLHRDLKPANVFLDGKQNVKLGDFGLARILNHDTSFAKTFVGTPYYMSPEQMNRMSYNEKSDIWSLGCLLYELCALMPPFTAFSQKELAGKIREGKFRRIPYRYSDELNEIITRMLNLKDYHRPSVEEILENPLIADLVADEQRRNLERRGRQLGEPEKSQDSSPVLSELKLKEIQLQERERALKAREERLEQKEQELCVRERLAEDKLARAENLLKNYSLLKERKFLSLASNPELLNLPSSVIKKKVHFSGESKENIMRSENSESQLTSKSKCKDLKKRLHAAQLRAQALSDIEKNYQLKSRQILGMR
The settings on record: for pIC50: derived from % inhibition at 1 μM. The procedure, abridged:
(§1)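 Compound was pre-incubated with enzyme and substrate for 5 minutes at room temperature, then the reaction was started with ATP (added solution at 5, 20 or 50 […] depending on kinase). Orthophosphoric acid stopped it, and phosphorylated substrate captured on P81 filters was quantified by scintillation counting.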

Assay [2] has as its target T2, TTK (Homo sapiens, UniProt P33981).
T2 construct: purchased
T2 sequence (P33981 1-857): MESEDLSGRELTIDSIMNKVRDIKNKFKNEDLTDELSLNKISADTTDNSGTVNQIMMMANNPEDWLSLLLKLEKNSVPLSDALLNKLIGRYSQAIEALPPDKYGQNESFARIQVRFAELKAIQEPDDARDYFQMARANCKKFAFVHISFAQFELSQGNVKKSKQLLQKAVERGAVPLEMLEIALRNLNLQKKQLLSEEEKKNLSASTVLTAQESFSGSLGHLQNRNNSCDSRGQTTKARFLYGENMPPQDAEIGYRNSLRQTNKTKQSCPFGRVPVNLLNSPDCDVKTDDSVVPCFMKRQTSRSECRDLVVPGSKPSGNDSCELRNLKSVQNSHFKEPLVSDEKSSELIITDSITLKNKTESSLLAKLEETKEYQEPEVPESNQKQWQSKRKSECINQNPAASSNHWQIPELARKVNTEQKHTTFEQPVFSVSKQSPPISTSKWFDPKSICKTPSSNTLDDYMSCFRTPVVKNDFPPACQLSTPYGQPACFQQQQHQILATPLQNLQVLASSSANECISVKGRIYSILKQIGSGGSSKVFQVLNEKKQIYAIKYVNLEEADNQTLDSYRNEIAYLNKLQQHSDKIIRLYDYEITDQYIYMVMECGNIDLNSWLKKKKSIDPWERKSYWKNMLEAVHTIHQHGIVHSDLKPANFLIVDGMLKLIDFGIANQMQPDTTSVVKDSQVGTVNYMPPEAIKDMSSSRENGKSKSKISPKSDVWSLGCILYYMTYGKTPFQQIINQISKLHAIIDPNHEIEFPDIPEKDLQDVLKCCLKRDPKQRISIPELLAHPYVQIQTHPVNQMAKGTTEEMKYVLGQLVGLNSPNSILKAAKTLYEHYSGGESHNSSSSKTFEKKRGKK
The settings on record: derived from % inhibition at 1 μM. An outline of the steps: as §1

Assay [3] has as its target T3, PRKCZ (Homo sapiens, UniProt Q05513).
T3 construct: purchased
T3 sequence (Q05513 1-592): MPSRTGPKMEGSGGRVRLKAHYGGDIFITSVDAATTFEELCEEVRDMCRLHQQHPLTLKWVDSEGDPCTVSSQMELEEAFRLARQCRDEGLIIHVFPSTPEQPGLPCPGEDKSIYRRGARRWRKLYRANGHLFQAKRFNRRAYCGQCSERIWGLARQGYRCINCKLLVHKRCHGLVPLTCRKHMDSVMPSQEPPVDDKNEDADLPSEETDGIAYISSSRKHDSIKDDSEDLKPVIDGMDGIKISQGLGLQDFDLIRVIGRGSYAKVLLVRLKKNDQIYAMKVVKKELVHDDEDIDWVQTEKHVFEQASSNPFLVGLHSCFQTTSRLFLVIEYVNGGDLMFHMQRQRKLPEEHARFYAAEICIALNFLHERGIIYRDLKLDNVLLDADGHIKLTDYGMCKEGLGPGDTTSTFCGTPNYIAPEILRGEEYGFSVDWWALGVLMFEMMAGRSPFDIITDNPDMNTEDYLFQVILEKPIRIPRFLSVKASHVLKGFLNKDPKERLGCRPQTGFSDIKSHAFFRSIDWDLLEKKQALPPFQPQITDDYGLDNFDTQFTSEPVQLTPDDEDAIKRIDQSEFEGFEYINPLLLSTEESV
The settings on record: derived from % inhibition at 1 μM. The procedure, abridged: as §1

With `Nc1ncsc1C#Cc1cnc2[nH]ccc2c1` [Compound A22, 5-(1H-pyrrolo[2,3-b]pyridin-5-ylethynyl)thiazol-4-ylamine], the pIC50 is < 6.00 in assay [1], 4.00 to 5.00 in assay [2] and < 6.00 in assay [3].
On to `CC(C)(C)OC(=O)Nc1ncsc1C#CCN1C(=O)c2ccccc2C1=O` [Compound A26, tert-butyl{5-[3-(1,3-dioxo-1,3-dihydroisoindol-2-yl)prop-1-ynyl]-thiazol-4-yl}carbamate], for which the pIC50 in assay [1] is 5.00 to 6.00; in assay [2] it was 4.00 to 5.00; in assay [3], 4.00 to 5.00.
For `Nc1ncsc1C#Cc1cccc(O)c1` [Compound A27, 3-(4-aminothiazol-5-ylethynyl)phenol], the pIC50 in assay [1] is 5.00 to 6.00; in assay [2], 4.00 to 5.00; in assay [3], < 6.00. In assay [1] (read-out: residual kinase activity Nek2A), the remaining activity at 1 µM worked out at 59%.
Turning to `CC(C)(C)OC(=O)Nc1nc(-c2ccncc2)sc1C#CCN1CCOCC1` [Compound A25, tert-butyl[5-(3-morpholin-4-ylprop-1-ynyl)-2-pyridin-4-ylthiazol-4-yl]-carbamate], the pIC50 in assay [1] is 5.00 to 6.00; in assay [2], 4.00 to 5.00; in assay [3] it was 4.00 to 5.00.
Regarding `c1ccc(Cc2c[nH]c3ncsc23)cc1` [Compound A7, 6-benzyl-4H-pyrrolo[2,3-d]thiazole], the pIC50 was < 6.00 in assay [1], 4.00 to 5.00 in assay [2] and < 6.00 in assay [3].

The term pIC50 denotes the IC50 on a negative log10 scale, so that one unit is a factor of ten.
